Results from paper PMC4279401 (Oncotarget, 2014).
Entries after “also recorded” stand apart in the source; their conditions may differ. Read-outs that look alike come from different tables or passages of the source.

How the values were obtained:
[1] = test system: MDA-MB231, BT549 and MCF-7 breast cancer cells; test: Cell proliferation, MTT assay, DOT1L+ breast cancer cells; format: cell-based, Human; settings: for EC50: Homo sapiens
HCC70 = test: Cell proliferation, MTT assay; format: cell-based; settings: Homo sapiens, read-out: Anti-proliferative activity EC50
NB4 = test: Cell proliferation, MTT assay; format: cell-based; settings: Homo sapiens, read-out: Anti-proliferative activity EC50
[2] = in words; cited from earlier work
MDA-MB231 [3] = test: Cell proliferation, MTT assay; format: cell-based; settings: Homo sapiens
MDA-MB157 = test: Cell proliferation, MTT assay; format: cell-based; settings: Homo sapiens, read-out: Anti-proliferative activity EC50
H3K79 methylation [4] = test: Western blot of histone methylation in MCF-7; format: cell-based, Human; settings: MCF-7, Western blot, in words
Method: (§1) Human cell lines BT549, MDA-MB231, MCF-7, MDA-MB157, HCC70, A549 and NB4 were obtained from the American Type Culture Collection (ATCC) and cultured using ATCC recommended conditions. Primary antibodies against H3K79me2, H3K27me3, H3K4me3, H3K36me2, H4K20me3, H3K9me-pan were purchased from Cell Signaling (Danvers, MA). siRNA experiments were performed by transfecting MDA-MB-231 cells with X-tremeGENE Transfection Reagent (Roche) and 10 nM siRNA (Invitrogen), according to the manufacturer's protocol.
(§2) 10^6 cells/well were incubated with increasing concentrations of a compound for 5 days and histones extracted with the EpiQuik™ Total Histone Extraction Kit (Epigentek) according to the manufacturer's protocol. Equal amounts of histones (2μg) were separated on SDS-PAGE and transferred to PVDF membranes. The blots were probed with primary antibodies, followed by anti-rabbit IgG (Thermo Scientific) secondary antibodies. For western blot analysis of MDA-MB231 xenograft tumors, tumors were harvested and frozen in liquid nitrogen. Histones were extracted and analyzed by immunoblotting as described above.

MDA-MB231 cells [5] = test: Microarray gene set enrichment analysis; format: cell-based, Human; settings: 1 at 5 μM, 2 at 10 μM, in words
Method: 10^5 cells/well were incubated with compounds for 14 days. Cells were lysed immediately in TRIzol® Reagent, frozen in liquid nitrogen, and shipped to Asuragen, Inc. (Austin, TX) for microarray experiments. RNA was isolated, amplified, and hybridized to Illumina Human HT-12 v4 arrays according to the manufacturer's protocol. Microarray data were log2 transformed and then normalized to have the same median for all the arrays. Moderate t-statistics were used to test if genes were differentially expressed between the groups of interest. Benjamini and Hochberg method was used to correct for multiple comparisons. R and Bioconductor packages were used for all the statistical analyses (http://cran.us.r-project.org/, http://www.bioconductor.org/). Gene set enrichment analysis was performed using GSEA software from Broad Institute (Boston, MA).

MDA-MB231 cells [6] = test: ALDEFLUOR assay; format: cell-based, Human; settings: in words
Method: (§3) 5 × 10^4 cells/well were incubated with compounds for 14 days. The ALDH activity of cells was determined by using the ALDEFLUOR assay kit (StemCell Technologies) according to the manufacturer's instructions. Combinations of fluorochrome-conjugated monoclonal antibodies against human CD44-FITC and CD24-PE were obtained from BD Biosciences. Primary antibodies or the respective isotype controls (BD Biosciences) were added to the cell suspension, according to the manufacturer's recommendation, and incubated at 4°C for 20 min. Dead cells were eliminated using propidium iodide (Sigma). The labelled cells were analyzed on a FACS Calibur (BD Biosciences/Applied Biosystems).

A549 = test: Cell proliferation, MTT assay; format: cell-based, Human; settings: for EC50: Homo sapiens, read-out: Anti-proliferative activity EC50
[7] = test system: five breast cancer cell lines, lung cancer A549 and non-MLL leukemia NB4 cells; test: Cell proliferation, MTT assay, whole panel; format: cell-based; settings: Homo sapiens, 72 h; 3-day treatment, all seven cell lines; read-out: EC50 against all of these cells
H3K79 methylation [8] = test: Western blot of histone methylation in MDA-MB231; format: cell-based, Human; settings: for IC50: Homo sapiens, MDA-MB-231, read-out: IC50 of H3K79 methylation inhibition
Method: as §1, §2

[9] = test system: MDA-MB157 and HCC70 as well as A549 and NB4; settings: in words
MDA-MB231 cells [10] = test: CD44/CD24 flow cytometry; format: cell-based, Human; settings: MDA-MB231, FACS, in words
Method: as §3

MDA-MB231 [11] = test: Matrigel invasion assay; format: cell-based, Human
Method: (§4) 5 × 10^4 cells/well were incubated with compounds for 14 days. For transwell migration assays, 5× 10^4 cells were plated in the top chamber with the non-coated membrane (24-well insert; pore size, […]; BD Biosciences). For invasion assays, 5× 10^4 cells were plated in the top chamber with Matrigel-coated membrane. The cells on the apical side of each insert were then scraped off after 22 h for both assays. The wells were washed with PBS, fixed with 100% methanol and stained with DAPI. Cells that had migrated to the basal side of the membrane were visualized and counted with a Nikon Eclipse TE2000-U microscope at 10×. Pictures of three random fields were obtained and the number of cells that had migrated quantified using ImageJ analysis software.

MDA-MB231 [12] = test: Transwell cell migration assay; format: cell-based, Human; settings: for cell migration and invasion: MDA-MB231, Transwell with and without Matrigel, in words
Method: as §4

BT549 = test: Cell proliferation, MTT assay; format: cell-based; settings: Homo sapiens
MCF-7 = test: Cell proliferation, MTT assay; format: cell-based; settings: Homo sapiens
Toxicity in treated mice = format: in vivo
Method: (§5) Female athymic nude mice (4 to 6 weeks old) were obtained from Charles River (Wilmington, MA, USA) and maintained under pathogen-free conditions. The use of athymic nude mice and their treatment were approved by the BCM Institutional Animal Care and Use Committee, and the experiments were conducted in strict compliance with the regulations. 2 ×10^6 MDA-MB-231 cells were injected into the upper right mammary fat pad of the recipient mouse and tumor growth and animal weights were monitored twice a week. The tumor volumes were calculated using the formula length × (width)^2/2. When the tumors reached a size of about 20–30 mm^3, mice were randomly segregated into control and treatment groups. Mice in the treatment group were implanted subcutaneously an osmotic pumps (Alzet model 2004) containing 2.8 mg of 3 in 200 μL of PBS. Animals were sacrificed when the volumes of tumors reaching ~1.5 cm^3. Log-rank analysis was used to determine statistical significance of the survival curves using Prism 5.0 (GraphPad).

[13] = test system: methylation at H3K4, H3K9, H3K27, H3K36 and H4K20; test: Western blot of methylation at other histone lysines in MDA-MB231; format: cell-based, Human; settings: at concentrations of <1 μM, in words
Method: as §2

SAHH = settings: read-out: Ki against SAHH; cited from earlier work
MDA-MB231 cells [14] = test: Apoptosis, Annexin V FACS; format: cell-based, Human; settings: 20 nM, day 7
Method: (§6) For apoptosis and cell cycle analysis, 10^5 cells/well were incubated with increasing concentrations of a compound for 7 or 10 days. Apoptosis was determined using the FITC Annexin V Apoptosis Detection Kit I (BD Bioscience) according to the manufacturer's protocol. Cells for cell cycle analysis were fixed in cold 70% ethanol at 4°C and stained with Propidium iodide (Sigma-Aldrich) (20 μg/ml) and RNase A (10 μg/ml) for 30min. Cells were analyzed using a FACS Calibur (BD Biosciences/Applied Biosystems) and data were processed using the program Flowjo (version7.6.5).

MDA-MB231 [15] = test: Secondary mammosphere assay; format: cell-based, Human; settings: MDA-MB231, in words
Method: The protocol for mammosphere assay was performed using a published method. The numbers of secondary mammospheres in each well were counted using a Leica MZ12.5 microscope.

H3K27 methylation = test: Western blot of histone methylation in MDA-MB231; format: cell-based; settings: Homo sapiens, MDA-MB-231, Fig. 4b, read-out: IC50 against H3K27 methylation
Method: as §2

MDA-MB231 cells [16] = test: Cell cycle analysis, propidium iodide FACS; format: cell-based, Human
Method: as §6

H3K79 methylation [17] = test: Western blot of xenograft tumor tissues; format: in vivo, athymic nude mice; settings: day 14, Western blot, in words
Method: as §2
as §5, with “Mice in the treatment group were implanted subcutaneously an osmotic pumps (Alzet model 2004) containing 2.8 mg of 3 in 200 μL of PBS. Animals were sacrificed when the volumes of tumors reaching ~1.5 cm^3. Log-rank analysis was used to determine statistical significance of the survival curves using Prism 5.0 (GraphPad).” left out

MDA-MB231 xenograft = MDA-MB231 xenograft mouse model; format: in vivo, athymic nude mice; settings: 4 mg/kg/day for 28 days
Method: as §5

[18] = MDA-MB-231, 72 h, MDA-MB231, 3-day treatment, read-out: Anti-proliferative activity EC50
[19] = BT-549, 72 h, BT549, 3-day treatment, read-out: Anti-proliferative activity EC50
[20] = MCF7, 72 h, MCF-7, 3-day treatment, read-out: Anti-proliferative activity EC50

CC(C)N(CCCNC(=O)Nc1ccc(C(C)(C)C)cc1)C[C@H]1O[C@@H](n2ccc3c(N)ncnc32)[C@H](O)[C@@H]1O [Compound 1, EPZ004777]
EC50 ([1]; 360 h, 15-day treatment, MDA-MB231, BT549, MCF-7, read-out: EC50 against proliferation): 0.19 to 1.4 µM
EC50 ([1]; 360 h, DOT1L+ breast cancer cells, 15-day, read-out: anti-proliferation EC50): ≥ 0.19 µM
EC50 (HCC70; 72 h, HCC70, 3-day treatment): 20 µM
EC50 (HCC70; 360 h, HCC70, 15-day treatment): 12 µM
EC50 (NB4; NB-4, 72 h, NB4, 3-day treatment): 21 µM
EC50 (NB4; NB-4, 360 h, NB4, 15-day treatment): 22 µM
pharmacokinetics [2]: poor pharmacokinetics with short plasma half-lives
EC50 (MDA-MB231 [3]; [18]): 45 µM
EC50 (MDA-MB231 [3]; MDA-MB-231, 360 h, MDA-MB231, 15-day treatment, read-out: Anti-proliferative activity EC50): 0.19 µM
EC50 (MDA-MB157; MDA-MB-157, 72 h, MDA-MB157, 3-day treatment): > 50 µM
EC50 (MDA-MB157; MDA-MB-157, 360 h, MDA-MB157, 15-day treatment): 27 µM
effect on H3K79 methylation (H3K79 methylation [4]): significantly reduced H3K79 methylation; also recorded: considerably reduced H3K79 methylation
genes whose expression is low in breast CSCs (GSEA) (MDA-MB231 cells [5]): upregulation
pro-proliferation genes in the PAM50 gene set (GSEA) (MDA-MB231 cells [5]): downregulation
ALDH+ cell population (MDA-MB231 cells [6]): considerably reduced
EC50 (A549; 72 h, A549, 3-day treatment): 19 µM
EC50 (A549; 360 h, A549, 15-day treatment): 20 µM
activity against A549 cells (A549; in words): negligible activity
EC50 [7]: ≥ 15 µM
IC50 (H3K79 methylation [8]): ~0.05 µM
effect on H3K79 methylation (H3K79 methylation [8]; in words): only inhibited H3K79 methylation
activity against DOT1L−/low breast or non-breast cancer cells [9]: inactive
CD44+/CD24− cell population (MDA-MB231 cells [10]): significantly decreased
cell population expressing high levels of CD24 (MDA-MB231 cells [10]): considerably more cells expressed higher levels of CD24; also recorded: increased cell population
inhibition of Matrigel invasion (MDA-MB231 [11]): ~25%
inhibition of cell migration (MDA-MB231 [12]; MDA-MB231, Transwell): ~ 50%
cell migration and invasion (MDA-MB231 [12]): reduced abilities of cell migration and invasion
EC50 (BT549; [19]): 29 µM
EC50 (BT549; BT-549, 360 h, BT549, 15-day treatment, read-out: Anti-proliferative activity EC50): 0.71 µM
EC50 (MCF-7; [20]): 15 µM
EC50 (MCF-7; MCF7, 360 h, MCF-7, 15-day treatment, read-out: Anti-proliferative activity EC50): 0.95 µM

Nc1ncnc2c1ncn2[C@@H]1C=C(CO)[C@@H](O)[C@H]1O [Compound 3, neplanocin A]
EC50 ([1]; 72 h, three DOT1L+ breast cancer cells, 3-day, read-out: EC50, 3-day treatment): 0.9 to 2.6 µM
times more active in 15-day than in the corresponding 3-day data ([1]; MDA-MB231, BT549, MCF-7): 18 - 100 ×
toxicities (Toxicity in treated mice; 4 mg/kg/day for 28 days, in words): no obvious toxicities
changes in blood cell counts, hemoglobin and body weight (Toxicity in treated mice; 4 mg/kg/day, day 28, in words): did not cause significant changes; also recorded: no significant changes
inhibitory activity against methylation at H3K4, H3K9, H3K27, H3K36 and H4K20 [13]: no or negligible inhibitory activities; also recorded: negligible effects
EC50 (MDA-MB231 [3]; [18]): 0.93 µM
EC50 (MDA-MB231 [3]; MDA-MB-231, 360 h, MDA-MB231, 15-day, read-out: EC50, 15-day treatment): 0.009 µM
Ki (SAHH): 0.0084 µM
apoptosis of MDA-MB231 cells (MDA-MB231 cells [14]): 12.1%
secondary mammosphere formation (MDA-MB231 [15]): more pronounced activity; also recorded: inhibited secondary mammosphere formation
ALDH+ cell population (MDA-MB231 cells [6]): decreased; also recorded: reduced
IC50 (H3K27 methylation): > 6 µM
IC50 (H3K79 methylation [8]): ~0.05 µM
sub-G1 phase cell population (MDA-MB231 cells [16]; MDA-MB231, in words): increased sub-G1 population
sub-G phase cell population after treatment (MDA-MB231 cells [16]; MDA-MB231, control 4.4%): 21.2%
CD44+/CD24− cell population (MDA-MB231 cells [10]): reduced; also recorded: decreased
cell population expressing high levels of CD24 (MDA-MB231 cells [10]): significantly expanded; also recorded: increased cell population expressing high levels of CD24
cell migration and invasion (MDA-MB231 [12]): more pronounced activity; also recorded: reduced cell migration and invasiveness
H3K79 methylation in tumor tissues (H3K79 methylation [17]): only significantly reduced H3K79 methylation levels; also recorded: only H3K79 methylation was significantly inhibited
EC50 (BT549; [19]): 2.6 µM
EC50 (BT549; BT-549, 360 h, BT549, 15-day, read-out: EC50, 15-day treatment): 0.029 µM
animal survival (MDA-MB231 xenograft; in words): significantly prolonged animal survivals
tumor growth (MDA-MB231 xenograft; in words): significantly inhibited
tumor growth inhibition (MDA-MB231 xenograft; subcutaneous osmotic pump): > 95%
tumors exhibiting regression during the treatment (MDA-MB231 xenograft; remained 1-3 mm in diameter): Four tumors (out of nine)
EC50 (MCF-7; [20]): 0.91 µM
EC50 (MCF-7; MCF7, 360 h, MCF-7, 15-day, read-out: EC50, 15-day treatment): 0.051 µM
